Consider 7 compounds from patent US4587245A, “Method of treating neuropsychic disturbances by benzodiazepine derivatives and composition therefor” (Sanofi, priority 1976, dated 1986).

Usually ED50 stands for the dose that gives a 50% effect, or the effect in half of the subjects.

The test system of one series is motility of mice. Briefly: Spontaneous actography. The series is classed as in vivo. The settings on record: oral. On the procedure: (§1) The products according to the invention were subjected to pharmacological tests in mice in order to determine their activity on the central nervous system. We shall indicate below the various tests to which the products were subjected.
(§2) In all cases the products were administered orally.
1. Spontaneous actography
The animals are placed in individual cages through which pass two beams which strike two photoelectric cells.
During their movements, the animals (mice) intercept the beams and cause a recording on the impulse counters.
The variations in the motility of the treated animals are expressed in percentages relative to comparison animals; the sign-indicates a reduction (in percent) of the motility of the subjects.

Series [1] concerns pentylenetetrazol (cardiazol) convulsions in mice. Briefly: Anti-convulsive activity in relation to cardiazol. The settings on record: Mus musculus, oral, cardiazol 125 mg/kg intraperitoneally, protects 50% of animals, read-out: Anti-convulsive action Cardiazol ED50. It is filed as in vivo. Here is the method: as §1, §2
Anti-convulsive activity in relation to cardiazol
When administered intraperitoneally at a dose of 125 mg/kg, pentylenetetrazol (or cardiazol) causes the appearance of lethal convulsions in 100% of the mice treated.
The active products administered orally prior to the cardiazol oppose the appearance of the convulsions and possibly allow the test animals to survive.
The results are expressed as the ED50, that is to say as the dose (in mg/kg) which protects 50% of the animals.

The subject of series [2] is mice. As to the kind of experiment: Anxiolytic activity: 4 plate test. The series is classed as in vivo. The settings on record: oral, 45 minutes after administration, lowest dose with significant effect. Here is the method:
as §1, §2
Anxiolytic activity: 4 plate test
The device is a parllelopiped chamber of which the floor consists of 4 metal plates of equal area. The experimenter can create a difference of potential which corresponds to a current of intensity 0.35 mA for a duration of 0.2 second, between each plate. Each time a mouse passes from one plate to the other, it receives an electric shock.
The anxiolytic agents cause an indifference to these electric shock and as a result the treated mice cross from one plate to another more frequently than the comparison mice. 45 minutes after administration of the product to be studied, the mice are placed in the chamber for 1 minute and the number of shocks received is measured and compared with the number of shocks received by the comparison animals. The results are expressed as a percentage increase in the number of shocks received by the treated animals relative to the comparison animals (which amounts to a percentage effect for a given dose), or as a threshold dose (TD) which is the lowest dose which produces a significant effect.

Series [3] deals with mice. As to the kind of experiment: Toxicity. The settings on record: oral. It is filed as in vivo. On the procedure:
as §1, §2
Finally, for certain products, the LDo in mg/kg (for oral administration) has been provided.

In series [4] the test system is mice pulling themselves up on a horizontal bar. Briefly: Traction test. It is filed as in vivo. The settings on record: Mus musculus, oral, 50% of mice can no longer pull themselves up. On the procedure:
as §1, §2
This consists of observing whether the animals (mice) are capable of pulling themselves up on a horizontal bar gripped by the front paws.
The results are expressed as the 50% effective dose (ED50), which is the dose (in mg/kg) for which 50% of the mice can no longer pull themselves up.

A further series has as its system equilibration of mice. Briefly: Rotating rod test: equilibration. It is filed as in vivo. Conditions: Mus musculus, oral, 50% of mice fall. On the procedure: as §1, §2
3. Rotating rod test: equilibration
The results are expressed as the 50% effective dose (ED50) which is the dose (in mg/kg) for which 50% of the mice fall during the test.

The test system of series [5] is electric shock convulsions in mice. As to the kind of experiment: Anti-convulsive activity in relation to electric shock. The series is classed as in vivo. The settings on record: Mus musculus, oral, treated 1 hour beforehand, 12.5 V, 0.5 second, read-out: Anti-convulsive action Electric shock ED50. On the procedure:
as §1, §2
Anti-convulsive activity in relation to electric shock
An alternating current of 12.5 V is applied for 0.5 second by means of corneal electrodes to batches of 12 mice treated 1 hour beforehand with the product to be studied. The untreated mice subjected to this electric shock undergo a convulsion of the tonic type.

Series [6] deals with central receptor site of the benzodiazepines. As to the kind of experiment: Affinity for the central benzodiazepine receptor site, displacement of 3H-flunitrazepam in vitro. The settings on record: mice and rats. The series is classed as binding. Here is the method:
Studies were performed in mice and rats in order to evaluate the respective affinities of CM 6912 and of its metabolites on the central receptor site of the benzodiazepines.

Series [7] can be described thus: Drug disposition studies after oral administration. The series is classed as in vivo, several animal species and man. From the text:
The originality of the mechanism of action of CM 6912 has been determined by the appearance profile of active metabolites after oral administration.

The next series deals with man. As to the kind of experiment: Therapeutic evaluation in man. The settings on record: daily dosage of 2 mg. It is filed as in vivo. On the procedure:
For this purpose, a pharmaceutical composition containing 2 mg of CM 6912 is administered once a day.

In another series the test system is rats. Briefly: Approach-avoidance conflict procedure in Skinner boxes (dissociation of anxiolytic and sedative activities). The series is classed as in vivo, male Wistar rats. Conditions: intraperitoneal; for ED50: Rattus norvegicus, ip, 0.5 h, 30 minutes before the test. Here is the method: Male Wistar rats are trained in Skinner boxes (Campden) in an approach-avoidance conflict procedure (Davidson and Cook, Psychopharmacologia 1969, 15, 159). The session lasts 30 minutes and consists of a multiple VI 30 sec/FR 3 schedule (sequence: 10 minutes VI+2 minutes FR+10 minutes VI+2 minutes FR+6 minutes VI). During the conflict periods, signalled by a light cue every 3d press delivers simultaneously a pellet and an electric shock. […] Lever presses are authomatically recorded by a microcomputer: non punished responses during the VI schedule and punished responses during the FR periods. A representative benzodiazepine of formula (I) above (R3=ethyl, R4=F; Code No. CM 6912) has been injected by intraperitoneal route 30 minutes before the test.

The mark [8] stands for this setting: dose 0.5 mg/kg, minus sign = reduction.
Setting [9] is: oral, several animal species and man.

Each structure is given as a SMILES string. Read-outs that look alike come from different tables or passages of the source.

As to `CCOC(=O)C1N=C(c2ccccc2Cl)c2cc(Cl)ccc2NC1=O` (stereo not shown) [CM 7101, 7-chloro-3-ethoxycarbonyl-5-(2-chlorophenyl)-2-oxo-2,3-dihydro-1H-benzodiazepine-1,4], in the series with motility of mice (setting [8]), the “Actography, variation in motility relative to comparison animals” value is given as -58%. Further, the ED50 in series [1] was determined as 0.75 mg/kg; in [4] it was 6 mg/kg; in the series with equilibration of mice, 6 mg/kg; in [5], 12 mg/kg. Further, the “Anxiolysis 4 plates threshold dose (TD)” value in the series with mice [2] was 0.5. Further, the “Toxicity LD.” value with mice [3] is given as more than 300 mg/kg.

In the case of `O=C1Nc2ccc(Cl)cc2C(c2ccccc2F)=NC1O` (stereo not shown) [3-hydroxy analog], in series [6], the “displacement of 3H-flunitrazepam in vitro” value (shortened to “displacement”) was “very potent”.

Consider `O=C(O)C1N=C(c2ccccc2F)c2cc(Cl)ccc2NC1=O` (stereo not shown) [free acid], for which, in series [6], the “displacement” value was “weak displacers”. In addition, in [7] (metabolite of CM 6912), the activity of metabolite entry was “inactive metabolite”.

Regarding `CCOC(=O)C1N=C(c2ccccc2F)c2cc(Cl)ccc2NC1=O` (stereo not shown) [CM 6912, 7-chloro-3-ethoxycarbonyl-5-(2-fluorophenyl)-2-oxo-2,3-dihydro-1H-benzodiazepine-1,4], the “Actography, variation in motility relative to comparison animals” value in the series with motility of mice (dose 33 mg/kg, minus sign = reduction) is on record as -23%. The “adverse effect in man” value with man was “without adverse effect”. For the same compound, the “anxiolytic properties in man” value in the series on man was “potent anxiolytic properties”. Moreover, the ED50 in the series on rats (read-out: anxiolytic activity ED50 (increase in punished responding)) came out at 1.66 mg/kg; with rats (read-out: sedative activity ED50 (decrease in unpunished responding)), 16 mg/kg; in series [1], 0.6 mg/kg; in series [4], 10 mg/kg; in the series on equilibration of mice it was 5 mg/kg; in series [5], 12 mg/kg. Moreover, in the series on rats, the “dissociation of the anxiolytic and sedative activities” value is listed as “statistically significant”. Moreover, the “displacement” value in series [6] is listed as “weak displacers”. Moreover, the “Anxiolysis 4 plates threshold dose (TD)” value in the series with mice [2] amounted to 1. Further, the “Toxicity LD.” value with mice [3] is more than 300 mg/kg. Also, the biotransformation result in series [7] (setting [9]) is “biotransformed into the free acid”. For the same compound, the “stability in the gastro-intestinal tract” value in series [7] (setting [9]) is reported as “stable in the gastro-intestinal tract”.

In the case of `COC(=O)C1N=C(c2ccccc2Cl)c2cc(Cl)ccc2NC1=O` (stereo not shown) [compound 7442], the “Actography, variation in motility relative to comparison animals” value in the series with motility of mice (setting [8]) is recorded as -57%. The ED50 in series [1] is 0.4 mg/kg; in series [4], 5 mg/kg; with equilibration of mice, 8 mg/kg; in series [5] it was 32 mg/kg. In addition, in the series on mice [2], the “Anxiolysis 4 plates threshold dose (TD)” value is recorded as 0.1. Moreover, the “Toxicity LD.” value with mice [3] is reported as more than 300 mg/kg.

With `CCOC(=O)C1N=C(c2ccccc2)c2cc(Cl)ccc2NC1=O` (stereo not shown) [CM 4279, reference compound], the “Actography, variation in motility relative to comparison animals” value in the series on motility of mice (dose 100 mg/kg) is “none”. The ED50 in series [1] is 9 mg/kg; in series [4], 100 mg/kg; with equilibration of mice it was more than 100 mg/kg; in series [5], more than 500 mg/kg. Further, the “Anxiolysis 4 plates threshold dose (TD)” value in the series with mice [2] is 10. The “Toxicity LD.” value with mice [3] is more than 300 mg/kg.

Turning to `O=C1CN=C(c2ccccc2F)c2cc(Cl)ccc2N1` [de-carbethoxy analog], the “displacement” value in [6] was “very potent”.
